In data set [1] the target is T1, NMDA receptor glycine site (Rattus norvegicus, UniProt P35439).
T1 construct: fresh brain tissue including cerebral cortex and hippocampus from male Sprague Dawley rats was homogenized; tissue Analytical Biological Services Inc; host or cells: rat brain membranes (cerebral cortex and hippocampus, male Sprague Dawley rats)
As to the kind of experiment: Test A: Inhibition of binding of [3H]-MDL105,519. How it is done: Test A: Inhibition of Binding of [^3H]-MDL105,519:
Binding of compounds to the NMDA receptor glycine site may be assessed by measuring the ability of test compounds to inhibit the binding of tritiated MDL105,519 to brain membranes bearing the receptor.
Rat Brain Membranes: The rat brain membranes used in the experiments were obtained from Analytical Biological Services Inc., and were prepared substantially in accordance with the method of B. M. Baron et al., J. Pharmacol. Exp. Ther. 250, 162 (1989). Briefly, fresh brain tissue including cerebral cortex and hippocampus from male Sprague Dawley rats was homogenized in 0.32 M sucrose and centrifuged at low speed to separate cellular membranes from other cellular components. The membranes were then washed 3 times using deionized water, followed by treatment with 0.04% Triton X-100. Finally, membranes were washed six times in 50 mM Tris citrate buffer, pH 7.4, and frozen at −80° C. until use.
[^3]MDL105,519 (72 Ci/mmol) was purchased from Amersham. Cold MDL105,519 was purchased from Sigma/RBI. Binding assays were performed substantially in accordance with the protocol of B. M. Baron et al., J. Pharmacol. Exp. Ther. 279, 62 (1996), as follows. On the day of the experiment, brain membranes were thawed at room temperature and suspended in 50 mM tris acetate buffer, pH 7.4 (“TAB”). Seventy-five micro grams per milliliter protein (by using the BioRad dye) were used for competition binding. The experiments were carried out using 96-well plates. Membranes were incubated with […] of compounds of various concentrations and 1.2 nM [^3H]MDL105,519 for 30 minutes at room temperature in a total volume of 250 μL. Non specific binding was determined by using 100 μM of unlabeled MDL105,519. The unlabeled MDL105,519 and compounds were dissolved as 12.5 mM stock solutions in DMSO. Final DMSO concentration in each well was kept below 1%, which concentration was found not to alter the binding results. After incubation, unbound [^3H]MDL105,519 was removed by filtration onto GF/B Unifilter plates using a Packard harvester. Filters were washed four times with ice cold TAB (total of 1.2 mL buffer). The plates were dried overnight at room temperature and bound radioactivity was measured on a Packard TopCount after the addition of 45 μL per well of the MICROSCINT O.
Human Brain Membranes: Human brain membranes were obtained from Analytical Biological Services Inc., and assays were performed as described for rat membranes.
Data analysis: Data was analyzed using a Microsoft Excel spreadsheet and GraphPad Prizm software and potency of compounds is expressed as the Ki (nM).

Structures can show the parent of a compound that is named as a salt.

One may read the melting point as the temperature, or range, at which the solid turns liquid. A word on the Ki: it is a measure of affinity in units of concentration, obtained from inhibition or displacement.

Consider `O=c1c2ccc(Cl)cc2[nH]c2c(O)nn(CC#Cc3ccccc3Cl)c(=O)c12` [Ex. 4, 7-Chloro-4-hydroxy-2-[3-(2-chlorophenyl)prop-2-ynyl]-1,2,5,10-tetrahydropyridazino[4.5-b]quinoline-1.10-dione], for which the melting point lay in the range of 255 to 257 °C. In data set [1], this molecule returned a Ki of 113 nM.

`O=c1c2ccc(Cl)cc2[nH]c2c(O)nn(CC#Cc3ccc(Cl)nc3)c(=O)c12` [Ex. 6, 7-Chloro-2-[3-(6-chloro(3-pyridyl))prop-2-ynyl]-4-hydroxy-2,5-dihydropyridazino[4,5-b]quinoline-1,10-dione]: the Ki in data set [1] amounted to 106 nM. Regarding `CS(=O)(=O)O.O=c1c2ccc(Cl)cc2[nH]c2c(O)nn(CC#Cc3cccnc3)c(=O)c12` [Ex. 5, 7-Chloro-4-hydroxy-2-(3-(3-pyridyl)prop-2-ynyl)-1,2,5,10-tetrahydropyridazino[4,5-b]quinoline-1,10-dione methanesulfonate], the melting point lay in the range of 227 to 229 °C. In data set [1], this molecule came in with a Ki of 14 nM. The matching figures for `O=c1c2ccc(Cl)cc2[nH]c2c(O)nn(CC#Cc3cccc(Cl)c3)c(=O)c12` [Ex. 2, 7-Chloro-4-hydroxy-2-[3-(3-chlorophenyl)prop-2-ynyl]-1,2,5,10-tetrahydropyridazino[4,5-b]quinoline-1,10-dione]: 220 to 222 °C and 7.86 nM. Molecule `O=c1c2ccc(Cl)cc2[nH]c2c(O)nn(CC#Cc3ccncc3)c(=O)c12` [Ex. 1, 7-Chloro-4-hydroxy-2-(3-(4-pyridyl)prop-2-ynyl)1,2,5,10-tetrahydropyridazino[4,5-b]quinoline-1,10-dione 1,3 methanesulfonate] displayed an inhibition constant (Ki) in data set [1] of 67.6 nM. The molecule `O=c1c2ccc(Cl)cc2[nH]c2c(O)nn(CC#Cc3ccncc3)c(=O)c12` (as salt: methanesulfonate) [Ex. 1, 7-Chloro-4-hydroxy-2-(3-(4-pyridyl)prop-2-ynyl)1,2,5,10-tetrahydropyridazino[4,5-b]quinoline-1,10-dione 1,3 methanesulfonate] displayed a melting point of 238 to 241 °C. The molecule `O=c1c2ccc(Cl)cc2[nH]c2c(O)nn(CC#Cc3ccc(Cl)cc3)c(=O)c12` [Ex. 3, 7-Chloro-4-hydroxy-2-[3-(4-chlorophenyl)prop-2-ynyl]-1,2,5,10-tetrahydropyridazino[4,5-b]quinoline-1,10-dione] came in with a melting point of 251 to 252 °C. The molecule also gave an inhibition constant (Ki) in data set [1] of 86.6 nM.
